# Read-outs that look alike come from different tables or passages of the source.
# Tests used:
# A431 cells = assay: Cell growth inhibitory effect on wild-type EGFR-expressing human cell line (CellTiter-Glo); type: cell-based; conditions: A-431, 72 h, read-out: GI50 A431
# Experimental: (§1) To evaluate the inhibitory activity of compounds against wild-type EGFR and mutant EGFR, the following cells were used: NCI-H1975 cells, which are human pulmonary adenocarcinoma cell lines expressing EGFR with mutation D770_N771insSVD by gene modification (which hereinafter also referred to as “H1975-EGFRinsSVD”); and A431 cells, which are human epithelial cancer cell lines expressing wild-type EGFR. H1975-EGFRinsSVD cells were prepared as follows. […] XTN (trademark) TALENs Site-Specific Nucleases (Transposagen) were introduced into the cells by electroporation using the Amaxa (trademark) Cell Line Nucleofector (trademark) Kit R, and endogenous-EGFR (T790M/L858R)-knockout cells were selected by sequencing.
# (§2) To evaluate the cell growth inhibitory effect, individual types of cells were suspended in a medium recommended by ATCC. The cell suspensions were seeded in each well of respective 96-well flat-bottom plates such that the cell count per well was 3,000, and incubated in a 5% CO2-containing incubator at 37° C. for 1 day. […] The cell count at the time incubation started (day 0) and the cell count after incubation (day 3) were measured using a CellTiter-Glo (trademark) Luminescent Cell Viability Assay (Promega Corporation) in accordance with the manufacturer's recommended protocol.
# (§3) 1) If T on day 3≥C on day 0: Growth Rate (%)=(T on day 3−C on day 0)/(C on day 3−C on day 0)×100 T: the luminescence intensity of a well to which a test compound was added. C: the luminescence intensity of a well to which the test compound was not added. Day 0: the day on which a test compound was added. Day 3: the day on which evaluation was performed. 2) If T on day 3<C on day 0: Growth Rate (%)=(T on day 3−C on day 0)/(C on day 0)×100 T: the luminescence intensity of a well to which a test compound was added. C: the luminescence intensity of a well to which the test compound was not added. Day 0: the day on which a test compound was added. Day 3: the day on which evaluation was performed.
# H1975-EGFRinsSVD cells [1] = assay: Cell growth inhibitory effect on mutant EGFR-expressing human cell line (CellTiter-Glo); type: cell-based; conditions: Homo sapiens, NCI-H1975, 72 h, read-out: GI50 H1975 EGFRinsSVD
# Experimental: as §1, §2, §3
# Additionally, the ratio of GI50between wild-type EGFR and EGFR exon 20 insertion mutation was determined using the following formula.
# GI50 (A431): GI50 for wild-type EGFR
# GI50 (H1975 EGFRinsSVD): GI50 for EGFR exon 20 insertion mutation
# NIH3T3-EGFRinsASV cells = assay: Antitumor effect, nude mice subcutaneously transplanted with NIH3T3-EGFRinsASV cells; type: in vivo, mouse; conditions: 20 mg/kg orally once daily, 14 days
# Experimental: (§4) Nude mice were subcutaneously transplanted with NIH3T3-EGFRinsASV cells, NIH3T3-EGFRinsSVD cells, or H1975-EGFRinsSVD cells to which human mutant EGFR was introduced. At the point at which the tumor volume of the tumor engrafted in the nude mice grew to about 100 to 200 mm^3, the mice were allocated into groups, 5 to 6 mice for each group, by stratified randomization such that the average tumor volume between the groups was uniform.
# (§5) The maximum tolerated dose was determined in accordance with the “Guidelines Involving Experimental Neoplasia Proposals in Mice and Rats” of the National Cancer Institute (NCI), from a humanitarian perspective.
# (§6) To compare the changes in growth of tumor over time due to administration of the individual test compounds, a relative tumor volume (which hereinafter also referred to as “RTV”) was calculated based on the tumor volume at the time the mice were divided into groups (which is taken as 1 for the tumor growth ratio), using the following formula. For a toxicity index, the body weight was measured over time, and the average body weight change (which hereinafter also referred to as “BWC (%)”) from the day on which the mice were divided into groups was calculated in accordance with the following formula.
# (§7) RTV=(the tumor volume on the day a tumor volume was measured)/(the tumor volume on the day mice were divided into groups) […]
# NIH3T3-EGFRinsNPH cells = assay: Antitumor effect, nude mice subcutaneously transplanted with NIH3T3-EGFRinsNPH cells; conditions: NIH3T3 EGFRinsNPH, 20 mg/kg orally once daily, 10 days
# Experimental: as §4, with “with NIH3T3-EGFRinsNPH” for “with NIH3T3-EGFRinsASV cells, NIH3T3-EGFRinsSVD cells, or H1975-EGFRinsSVD”, “cells into” for “cells to”, “groups,” for “groups, 5 to”
# as §5
# To compare the changes in growth of tumor over time due to administration of the individual test compounds, the tumor volume (which hereinafter also referred to as “TV”) of each mouse was calculated using the following formula. For a toxicity index, the body weight was measured over time, and the body weight change (which hereinafter also referred to as “BWC (%)”) from the day on which the mice were divided into groups was calculated in accordance with the following formula. FIGS. 9 and 10 illustrate changes in the average TV and the average BWC of the mice.
# TV (mm^3)=(the major axis x the short axis^2)/2
# (§8) BWC (%)=(the body weight measured on body weight measurement day)/(the body weight on the day mice were divided into groups)
# The T/C (%) on the final evaluation day was calculated in accordance with the following formula.
# T/C (%)=(the tumor volume of the group administered with a test compound)/(the tumor volume of the control group)
# [2] = tested on: H1975-EGFRinsSVD-Luc cells; assay: Life-extending effect, nude mice transplanted with H1975-EGFRinsSVD-Luc cells in the lung; conditions: H1975 EGFR insSVD in lung, 20 mg/kg orally once daily
# Experimental: H1975-EGFRinsSVD-Luc strain was established by introducing a luciferase into H1975-EGFRinsSVD, which is a human mutant EGFR-introduced cell line. A pJTI (trademark) Fast DEST vector, which was prepared by encoding a Luciferase into NCI-H1975-EGFRinsSVD cells, was introduced into […], together with a pJTI (trademark) PhiC31 integrase expression vector, by electroporation using an Amaxa (trademark) Cell Line Nucleofector (trademark) Kit R, followed by selection using hygromycin B (Nacalai Tesque Inc.).
# In evaluation of the life-extending effect, an equivalent amount of Matrigel was added to a suspension of cultured H1975-EGFRinsSVD-Luc cells to prepare a cell suspension, and the cell suspension was transplanted into the right lung of nude mice. On day 6 after transplantation, all of the living mice were administered a luciferin through the tail vein, and allocated into groups, 9 mice for each group, by stratified randomization such that the average luminescence intensity between the groups was uniform. […] The maximum tolerated dose was determined in accordance with the “Guidelines Involving Experimental Neoplasia Proposals in Mice and Rats” of the National Cancer Institute (NCI), from a humanitarian perspective.
# To evaluate the life-extending effect, the survival period after transplantation was observed, and the survival time of each mouse was determined. From the survival time, the median survival time (which hereinafter also referred to as “MST”) of each group was calculated, and the survival period-extending effect (i.e., an increase in lifespan, which hereinafter also referred to as “I.L.S. (%)”) was calculated based on MST of the control group and the group administered with a test compound, using the following formula. For a toxicity index, the body weight was measured over time, and the body weight change (which hereinafter also referred to as “BWC (%)”) from the day on which the mice were divided into groups was calculated in accordance with the following formula.
# T: MST of the group administered with a test compound
# C: MST of the control group
# as §8
# H1975-EGFRinsSVD cells [3] = assay: Antitumor effect, nude mice subcutaneously transplanted with H1975-EGFRinsSVD cells; type: in vivo, mouse; conditions: 20 mg/kg orally once daily, 14 days
# Experimental: as §4, §5, §6, §7
# [4] = Time of maximum blood concentration after oral administration in nude mice; type: in vivo, mouse; conditions: single oral administration, around
# NIH3T3-EGFRinsSVD cells = assay: Antitumor effect, nude mice subcutaneously transplanted with NIH3T3-EGFRinsSVD cells; type: in vivo, mouse; conditions: 20 mg/kg orally once daily, 14 days
# Experimental: as §4, §5, §6, §7
smiles,measurement,setting,value
"C=CC(=O)N[C@H]1CCc2c(-c3cnc4ccccc4c3)c3c(N)ncnc3n2C1 [Comparative Compound, (S)—N-(4-amino-5-(quinolin-3-yl)-6,7,8,9-tetrahydropyrimido[5,4-b]indolizin-8-yl)acrylamide, reference compound]",GI50,"A431 cells; A431, wild-type EGFR, 3 days",543 nM
same,GI50,"H1975-EGFRinsSVD cells [1]; H1975-EGFRinsSVD, D770_N771insSVD, 3 days",364 nM
"CN(C)C/C=C/C(=O)Nc1cc2c(Nc3ccc(F)c(Cl)c3)ncnc2cc1O[C@H]1CCOC1 [Afatinib, afatinib, reference compound]",T/C (%) on the final evaluation day,NIH3T3-EGFRinsASV cells,46%
same,T/C (%) on the final evaluation day,NIH3T3-EGFRinsNPH cells,59%
same,I.L.S. (%) (increase in lifespan),[2],23%
same,MST (median survival time),[2],54
same,T/C (%) on the final evaluation day,H1975-EGFRinsSVD cells [3],79%
same,time at which the maximum blood concentration is achieved,[4],three hours
same,T/C (%) on the final evaluation day,NIH3T3-EGFRinsSVD cells,39%
"C=CC(=O)Nc1cc(Nc2nccc(-c3cn(C)c4ccccc34)n2)c(OC)cc1N(C)CCN(C)C [Osimertinib, osimertinib, reference compound]",GI50,A431 cells,[…]
same,GI50,H1975-EGFRinsSVD cells [1],194 nM
